One data set addresses T1, CDC14A (Homo sapiens, UniProt Q9UNH5).
T1 construct: CDC14A, residues 1-413; made in house; host or cells: E. coli BL21(DE3)
The data set can be described thus: PTP selectivity, DiFMUP assay. The format is biochemical. Conditions: DiFMUP at Km. How it is done:
(§1) E. coli BL21(DE3) (Novagen) was used as an expression host and the induction of protein expression was carried out in LB media with 1 mM IPTG at 18 °C overnight. Cell pellets were stored at −80 °C for subsequent protein purification.
(§2) Protein purification of PTPs for enzymatic assays was conducted at 4 °C. Frozen cell pellets were lysed by sonication in 40 ml cold lysis buffer (50 mM Tris-HCl, pH 8.0, 150 mM NaCl, 5 mM imidazole, and 1 mM PMSF) per litre cell pellet. Cell lysates were clarified by centrifugation using a Beckman JA-18 rotor for 15 min at 5308 x g. The supernatant was incubated with HisPur Ni-NTA resin (Thermo Scientific) for 2 h and then packed onto a column and washed with 50 resin volume of buffer A (50 mM Tris-HCl, pH 8.0, 500 mM NaCl, 5 mM imidazole). The His-tagged proteins were eluted with Buffer B (50 mM Tris-HCl, pH=8.0, 500 mM NaCl, 300 mM imidazole,). Pooled His-protein-containing fractions were concentrated, loaded onto a HiLoad 26/600 Superdex 75 column (GE Healthcare Biosciences) and eluted with storage buffer (50 mM Tris-HCl, pH 8.0, 150 mM NaCl, 1 mM DTT, 10% glycerol). […] The protein was aliquoted and stored at −80 °C.
(§3) The PTP kinetic assay was modified from previous reported protocols[73],[74]. PTP activity was assayed using 6,8-Difluoro-4-Methylumbelliferyl Phosphate (DiFMUP, Invitrogen, cat# D6567,) as a substrate in 3,3-Dimethylglutaric acid (DMG) buffer (50 mM DMG, pH 7.0, 1 mM EDTA, 18 mM NaCl, 0.01% Triton X-100) at 25 °C. To determine the IC50 values, the assays were performed in 96-well plates (Corning Costar 3915). […] The final reaction volume is 200 µl. The reaction was allowed to proceed for 10 min and then quenched by the addition of 40 µl of a 160 µM solution of bpV(Phen) (Sigma-Aldrich, cat# SML0889). The fluorescence signal was measured using a CLARIOstar Plus Microplate Spectrophotometer (BMG Labtech) using excitation and emission wavelengths of 340 nm and 450 nm, respectively. Data were fitted using Prism GraphPad 9.2.0.
(§4) To determine the mode of inhibition, the reactions were initiated by the addition of enzyme (final concentration for PTP1B and PTPN2 was 0.05 nM) to the reaction mixtures (0.2 ml) containing various concentrations of DiFMUP with different concentrations of the inhibitor. The reaction was allowed to proceed for 10 min and then quenched by the addition of 40 µl of a 160 µM solution of bpV(Phen) (Sigma-Aldrich, cat# SML0889). The fluorescence signal was measured using a CLARIOstar Plus Microplate Spectrophotometer (BMG Labtech) using excitation and emission wavelength of 340 nm and 450 nm, respectively. Data were fitted using Prism GraphPad 9.2.0. For selectivity studies, the inhibition assay for other PTPs were performed under the same conditions as used for PTP1B and PTPN2 except with different DiFMUP concentration corresponding to the Km of the PTP studied.

The target in the next data set is T2, CDC14B (Homo sapiens, UniProt O60729).
T2 construct: CDC14B, residues 1-411; made in house; host or cells: E. coli BL21(DE3)
The data set can be described thus: PTP selectivity, DiFMUP assay. The settings on record: DiFMUP at Km. The format is biochemical. How it is done: as §1, §2, §3, §4

The next data set addresses T3, FAP-1 (Homo sapiens, UniProt Q12923).
T3 construct: FAP1, residues 2124-2485; made in house; host or cells: E. coli BL21(DE3)
Nature of the data set: PTP selectivity, DiFMUP assay. The settings on record: DiFMUP at Km. In kind it is biochemical. The method, then:
as §1, §2, §3, §4

The next data set has as its target T4, HePTP (Homo sapiens, UniProt P35236).
T4 construct: HePTP, residues 22-360; made in house; host or cells: E. coli BL21(DE3)
Nature of the data set: PTP selectivity, DiFMUP assay. In kind it is biochemical. The settings on record: DiFMUP at Km. How it is done: as §1, §2, §3, §4

The target of the next data set is T5, LMPTP (Homo sapiens, UniProt P24666).
T5 construct: LMWPTP, residues 1-158; made in house; host or cells: E. coli BL21(DE3)
Nature of the data set: PTP selectivity, DiFMUP assay. In kind it is biochemical. The settings on record: DiFMUP at Km. The method, then:
as §1, §2, §3, §4

The next data set concerns the target T6, LYP (Homo sapiens, UniProt Q9Y2R2).
T6 construct: LYP/PTPN22, residues 1-294; made in house; host or cells: E. coli BL21(DE3)
The data set can be described thus: PTP selectivity, DiFMUP assay. In kind it is biochemical. Conditions: DiFMUP at Km. The method, then: as §1, §2, §3, §4

Another data set concerns the target T7, Laforin (Homo sapiens, UniProt O95278).
T7 construct: made in house; host or cells: E. coli BL21(DE3)
Nature of the data set: PTP selectivity, DiFMUP assay. In kind it is biochemical. Conditions: DiFMUP at Km. How it is done:
as §1, §2, §3, §4

The next data set concerns the target T8, MKP5 (Homo sapiens, UniProt Q9Y6W6).
T8 construct: MKP5, residues 320-647; made in house; host or cells: E. coli BL21(DE3)
The data set can be described thus: PTP selectivity, DiFMUP assay. The format is biochemical. The settings on record: DiFMUP at Km. The method, then:
as §1, §2, §3, §4

A further data set addresses T9, PTP-PEST (Homo sapiens, UniProt Q05209).
T9 construct: PTP-PEST, residues 5-304; made in house; host or cells: E. coli BL21(DE3)
Nature of the data set: PTP selectivity, DiFMUP assay. The settings on record: DiFMUP at Km. The format is biochemical. The method, then: as §1, §2, §3, §4

The next data set deals with T10, PTPα (Homo sapiens, UniProt P18433).
T10 construct: PTPα, residues 173-793; made in house; host or cells: E. coli BL21(DE3)
The data set can be described thus: PTP selectivity, DiFMUP assay. The format is biochemical. The settings on record: DiFMUP at Km. How it is done: as §1, §2, §3, §4

Another data set concerns the target T11, PTPε (Homo sapiens, UniProt P23469).
T11 construct: PTPε, residues 107-697; made in house; host or cells: E. coli BL21(DE3)
The data set can be described thus: PTP selectivity, DiFMUP assay. In kind it is biochemical. The settings on record: DiFMUP at Km. How it is done:
as §1, §2, §3, §4

For the next data set, the target named is T12, SHP-1 (Homo sapiens, UniProt P29350).
T12 construct: SHP-1, residues 245-543; made in house; host or cells: E. coli BL21(DE3)
The data set can be described thus: PTP selectivity, DiFMUP assay. The format is biochemical. Conditions: DiFMUP at Km. The method, then:
as §1, §2, §3, §4

Another data set has as its target T13, SHP-2 (Homo sapiens, UniProt Q06124).
T13 construct: SHP-2, residues 224-528; made in house; host or cells: E. coli BL21(DE3)
The data set can be described thus: PTP selectivity, DiFMUP assay. In kind it is biochemical. The settings on record: DiFMUP at Km. How it is done: as §1, §2, §3, §4

The next data set addresses T14, STEP (Homo sapiens, UniProt P54829).
T14 construct: STEP, residues 258-539; made in house; host or cells: E. coli BL21(DE3)
Nature of the data set: PTP selectivity, DiFMUP assay. The format is biochemical. Conditions: DiFMUP at Km. How it is done:
as §1, §2, §3, §4

Another data set deals with T15, VHZ (Homo sapiens, UniProt Q9BVJ7).
T15 construct: VHZ, residues 1-150; made in house; host or cells: E. coli BL21(DE3)
Nature of the data set: PTP selectivity, DiFMUP assay. In kind it is biochemical. The settings on record: DiFMUP at Km. The method, then:
as §1, §2, §3, §4

The nature of data set [1]: Histology of liver, lungs, salivary glands, colon (H&E, Sirius Red). The format is in vivo, mouse. The settings on record: 10 mg/kg i.v.

In general, IC50 refers to the point on the concentration scale where inhibition reaches its midpoint.

T2 sequence (O60729 1-411): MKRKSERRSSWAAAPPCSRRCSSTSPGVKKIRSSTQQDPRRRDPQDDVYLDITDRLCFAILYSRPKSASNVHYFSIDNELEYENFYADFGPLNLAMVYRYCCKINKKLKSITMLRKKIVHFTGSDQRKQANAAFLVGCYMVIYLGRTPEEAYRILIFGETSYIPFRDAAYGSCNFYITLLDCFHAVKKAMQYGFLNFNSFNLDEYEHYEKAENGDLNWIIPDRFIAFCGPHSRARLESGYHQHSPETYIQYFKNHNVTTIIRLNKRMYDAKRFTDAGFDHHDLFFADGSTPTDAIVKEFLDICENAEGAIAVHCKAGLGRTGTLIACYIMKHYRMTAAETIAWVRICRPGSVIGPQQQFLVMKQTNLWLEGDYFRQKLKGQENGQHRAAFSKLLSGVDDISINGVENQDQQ
T6 sequence (Q9Y2R2 1-294): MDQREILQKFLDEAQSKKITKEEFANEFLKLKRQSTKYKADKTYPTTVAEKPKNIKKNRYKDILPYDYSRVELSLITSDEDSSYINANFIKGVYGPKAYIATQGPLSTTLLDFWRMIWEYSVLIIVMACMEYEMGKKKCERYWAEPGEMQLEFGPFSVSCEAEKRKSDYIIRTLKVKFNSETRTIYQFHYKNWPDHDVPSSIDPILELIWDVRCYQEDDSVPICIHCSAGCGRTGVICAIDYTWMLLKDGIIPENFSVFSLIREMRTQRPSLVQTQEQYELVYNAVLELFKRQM
T15 sequence (Q9BVJ7 whole entry, the tested form may be a part): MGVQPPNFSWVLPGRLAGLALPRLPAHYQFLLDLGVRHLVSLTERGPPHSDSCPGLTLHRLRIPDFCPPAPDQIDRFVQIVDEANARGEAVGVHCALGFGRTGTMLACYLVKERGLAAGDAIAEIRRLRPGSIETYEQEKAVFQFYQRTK
T8 sequence (Q9Y6W6 320-467 limits assumed): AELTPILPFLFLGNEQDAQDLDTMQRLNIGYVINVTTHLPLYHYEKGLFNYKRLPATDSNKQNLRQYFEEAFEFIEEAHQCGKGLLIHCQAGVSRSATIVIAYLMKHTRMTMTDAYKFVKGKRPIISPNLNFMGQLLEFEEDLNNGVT
T11 sequence (P23469 107-697): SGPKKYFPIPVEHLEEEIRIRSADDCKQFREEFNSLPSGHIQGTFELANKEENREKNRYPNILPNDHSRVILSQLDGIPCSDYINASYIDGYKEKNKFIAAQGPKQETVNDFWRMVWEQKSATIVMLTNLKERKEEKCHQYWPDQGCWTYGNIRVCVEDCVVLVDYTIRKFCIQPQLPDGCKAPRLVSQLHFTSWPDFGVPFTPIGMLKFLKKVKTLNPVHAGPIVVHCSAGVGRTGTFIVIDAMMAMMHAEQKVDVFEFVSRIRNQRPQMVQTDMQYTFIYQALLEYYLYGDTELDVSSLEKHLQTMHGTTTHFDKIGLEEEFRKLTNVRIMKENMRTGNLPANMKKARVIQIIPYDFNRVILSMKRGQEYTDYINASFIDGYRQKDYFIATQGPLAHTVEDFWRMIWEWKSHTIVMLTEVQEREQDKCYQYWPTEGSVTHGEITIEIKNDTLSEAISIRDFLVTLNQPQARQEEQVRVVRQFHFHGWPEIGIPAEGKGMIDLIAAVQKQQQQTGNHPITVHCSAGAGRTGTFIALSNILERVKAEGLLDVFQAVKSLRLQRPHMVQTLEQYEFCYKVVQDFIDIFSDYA
T7 sequence (O95278 whole entry): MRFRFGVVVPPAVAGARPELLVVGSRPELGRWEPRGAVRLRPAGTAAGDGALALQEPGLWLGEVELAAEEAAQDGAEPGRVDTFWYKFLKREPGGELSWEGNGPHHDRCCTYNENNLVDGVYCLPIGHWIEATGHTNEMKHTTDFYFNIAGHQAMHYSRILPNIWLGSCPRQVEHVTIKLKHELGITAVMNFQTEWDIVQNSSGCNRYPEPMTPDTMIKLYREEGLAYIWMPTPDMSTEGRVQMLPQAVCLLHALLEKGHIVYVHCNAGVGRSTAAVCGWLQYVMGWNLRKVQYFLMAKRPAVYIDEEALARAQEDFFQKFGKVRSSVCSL
T5 sequence (P24666 whole entry, the tested form may be a part): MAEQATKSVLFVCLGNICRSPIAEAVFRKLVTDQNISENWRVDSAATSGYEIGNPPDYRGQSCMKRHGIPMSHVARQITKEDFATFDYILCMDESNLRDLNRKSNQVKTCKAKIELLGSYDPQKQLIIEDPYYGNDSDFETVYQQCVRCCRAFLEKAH
T4 sequence (P35236 22-360): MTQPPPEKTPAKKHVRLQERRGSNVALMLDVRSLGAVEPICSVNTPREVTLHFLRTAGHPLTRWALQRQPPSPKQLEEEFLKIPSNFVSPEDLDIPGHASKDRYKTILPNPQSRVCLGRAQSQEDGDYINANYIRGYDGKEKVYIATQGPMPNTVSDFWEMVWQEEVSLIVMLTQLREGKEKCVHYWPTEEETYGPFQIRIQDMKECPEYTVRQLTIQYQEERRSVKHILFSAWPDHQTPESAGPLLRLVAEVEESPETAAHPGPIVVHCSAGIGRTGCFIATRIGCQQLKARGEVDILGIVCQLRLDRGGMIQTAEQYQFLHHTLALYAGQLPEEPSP
T3 sequence (Q12923 2124-2485): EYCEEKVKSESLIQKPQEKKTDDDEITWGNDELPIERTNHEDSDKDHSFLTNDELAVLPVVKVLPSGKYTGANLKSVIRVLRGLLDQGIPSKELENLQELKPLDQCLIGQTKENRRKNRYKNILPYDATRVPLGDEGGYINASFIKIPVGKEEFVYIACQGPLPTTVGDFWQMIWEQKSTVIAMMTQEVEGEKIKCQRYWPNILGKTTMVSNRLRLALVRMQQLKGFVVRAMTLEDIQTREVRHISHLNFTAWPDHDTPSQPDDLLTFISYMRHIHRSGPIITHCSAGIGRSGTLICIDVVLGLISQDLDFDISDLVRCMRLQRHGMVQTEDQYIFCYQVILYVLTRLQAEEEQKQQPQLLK
T1 sequence (Q9UNH5 1-413): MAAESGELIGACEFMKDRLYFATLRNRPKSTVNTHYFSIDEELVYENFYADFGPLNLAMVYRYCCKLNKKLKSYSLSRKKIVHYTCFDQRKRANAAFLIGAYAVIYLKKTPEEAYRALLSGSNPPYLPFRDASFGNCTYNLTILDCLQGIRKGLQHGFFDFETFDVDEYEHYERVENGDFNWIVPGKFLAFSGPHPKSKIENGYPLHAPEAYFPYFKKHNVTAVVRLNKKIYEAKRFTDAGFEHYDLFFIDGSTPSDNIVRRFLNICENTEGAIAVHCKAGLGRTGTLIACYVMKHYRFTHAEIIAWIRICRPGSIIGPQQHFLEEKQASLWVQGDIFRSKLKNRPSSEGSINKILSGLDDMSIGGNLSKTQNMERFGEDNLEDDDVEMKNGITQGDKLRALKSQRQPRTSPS
T9 sequence (Q05209 5-304): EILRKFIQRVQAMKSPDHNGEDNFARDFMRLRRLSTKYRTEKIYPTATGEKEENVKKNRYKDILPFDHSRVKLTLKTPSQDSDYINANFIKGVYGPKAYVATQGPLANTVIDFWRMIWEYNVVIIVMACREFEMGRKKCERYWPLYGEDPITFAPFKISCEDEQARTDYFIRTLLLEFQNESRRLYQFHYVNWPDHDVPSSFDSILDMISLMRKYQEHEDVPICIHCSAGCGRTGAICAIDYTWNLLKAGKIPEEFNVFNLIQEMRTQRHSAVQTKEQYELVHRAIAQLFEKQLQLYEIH
T14 sequence (P54829 282-563): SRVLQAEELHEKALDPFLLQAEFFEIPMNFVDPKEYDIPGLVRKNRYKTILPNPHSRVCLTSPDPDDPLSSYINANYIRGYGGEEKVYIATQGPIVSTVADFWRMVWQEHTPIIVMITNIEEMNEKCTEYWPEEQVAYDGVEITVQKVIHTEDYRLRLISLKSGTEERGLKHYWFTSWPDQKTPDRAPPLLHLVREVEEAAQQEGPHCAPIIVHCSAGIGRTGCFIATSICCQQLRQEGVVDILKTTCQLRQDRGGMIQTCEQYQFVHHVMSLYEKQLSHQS
T12 sequence (P29350 245-543): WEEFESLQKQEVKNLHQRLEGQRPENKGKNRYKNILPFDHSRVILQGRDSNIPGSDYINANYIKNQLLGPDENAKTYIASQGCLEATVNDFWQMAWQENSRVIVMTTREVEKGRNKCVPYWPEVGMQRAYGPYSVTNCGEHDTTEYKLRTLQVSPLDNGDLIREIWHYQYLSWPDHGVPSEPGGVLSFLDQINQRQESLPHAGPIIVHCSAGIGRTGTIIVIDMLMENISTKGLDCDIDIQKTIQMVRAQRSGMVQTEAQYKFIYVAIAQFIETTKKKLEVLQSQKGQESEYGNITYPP
T13 sequence (Q06124 224-528): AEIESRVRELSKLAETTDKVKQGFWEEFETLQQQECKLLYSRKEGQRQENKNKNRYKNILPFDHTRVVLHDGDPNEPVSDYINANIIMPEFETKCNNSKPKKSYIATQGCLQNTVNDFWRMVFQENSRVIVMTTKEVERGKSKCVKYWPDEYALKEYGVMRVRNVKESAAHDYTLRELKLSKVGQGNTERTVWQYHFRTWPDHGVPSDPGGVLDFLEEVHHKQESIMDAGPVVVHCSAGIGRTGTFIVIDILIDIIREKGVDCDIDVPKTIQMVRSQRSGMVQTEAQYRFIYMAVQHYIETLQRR

With `CC(C)(O)CCOc1ccc2cc(O)c(N3CC(=O)NS3(=O)=O)c(F)c2c1` [Compound 182, 5-(1-Fluoro-3-hydroxy-7-(3-hydroxy-3-methylbutoxy)naphthalen-2-yl)−1,2,5-thiadiazolidin-3-one 1,1-dioxide], the IC50 against CDC14A was 6.3 ± 0.8 µM; against CDC14B, 5.2 ± 1.7 µM; against FAP-1, above 20 µM; against HePTP it was above 20 µM; on LMPTP, above 20 µM; at LYP, above 20 µM. The half-maximal inhibitory concentration (IC50) against Laforin is above 20 µM; at MKP5, above 20 µM; at PTP-PEST, above 20 µM; against PTPα, above 20 µM; on PTPε it was 0.8 ± 0.1 µM; on SHP-1 it was 9.1 ± 0.4 µM. The values for the IC50 at SHP-2, against STEP and on VHZ were 19.2 ± 1.7 µM, above 20 µM and above 20 µM, respectively. The “liver fibrosis (Picrosirius red)” value in data set [1] is listed as “no signs of liver fibrosis”. The “lymphocytic infiltrates in liver, lungs, salivary glands and colon” value in [1] was “did not observe any overt lymphocytic infiltrates”.

Values taken from article PMC10374545, “A small molecule inhibitor of PTP1B and PTPN2 enhances T cell anti-tumor immunity” (Nature Communications, 2023).
